Measurements from PMC10178204, “Peptaibol Analogs Show Potent Antibacterial Activity against Multidrug Resistant Opportunistic Pathogens” (International Journal of Molecular Sciences, 2023).
Converted amounts (≈) assume the structure as drawn. Like-named read-outs stand apart in the source and are kept apart here. Non-standard residues stand in square brackets, D forms with d. Residues, ends and D or L forms follow the SMILES beside them. *: point of attachment. Octanoyl = CCCCCCCC(=O)*; Aib = CC(C)(N)C(=O)O

Tests used:
[1] = tested on: blood agar plate (Columbia CNA Agar); assay: Hemolysis on blood agar plate; conditions: 35 ± 2 °C, 24 h; for Hemolysis (class): 50 μg peptide (2 μL of 25 mg/mL in DMSO) spotted on blood agar, visual, triplicate
Protocol: Hemolysis zones were visually determined and measured. […] For two additional peptides (6 and 15), only a small hemolysis zone (diameter 4–5 mm) was visible, as compared to that of the positive control (Triton X-100, 13 mm).
Briefly, 2 μL of each peptide solution in DMSO (25 mg/mL), corresponding to 50 μg, was spotted on the surface of a blood agar plate (Columbia CNA Agar, Becton Dickinson Italia S.p.A., Florence, Italy). The plate was then incubated at 35 ± 2 °C for 24 h and visually inspected for the presence of hemolysis zones (see Figure S13, Supplementary Material). The experiment was performed in triplicate. Table 2 reports the average value of the diameter of hemolysis zones measured in each individual experiment. Triton X-100 was used as a positive control (diameter of the hemolysis zone: 13 mm), while DMSO was used as a negative control.
Figure S13. Implementation of the hemolysis test as described in Bechlars et al.. After spotting
2 µL (50 µg) of each compound at a random location on the blood agar plate and incubation at 35 ±
2 °C for 24 h, the plates were manually inspected for the presence of hemolysis zones. Triton X-100
and DMSO were used as the positive and negative controls, respectively. Results were interpreted
(1 picture or pasted object on this page, not shown here)

[2] = tested on: Staphylococcus aureus ATCC 25923; conditions: MHB, 5 × 10^5 CFU/mL, 18 h, 35 °C, triplicate
Source text: (§1) The antibacterial activity of the peptides was initially assessed on a panel of representative Gram-positive and Gram-negative organisms of high clinical relevance and commonly responsible for bacterial infections in both animals and humans. Bacillus subtilis ATCC 6633 (Bsu) was also included as a rod-shaped model Gram-positive organism. This first panel comprised: Enterococcus faecalis ATCC 29212 (Efa); Streptococcus pyogenes ATCC 12344 (Spy); and Staphylococcus aureus ATCC 25923 (Sau); Gram-negative: Escherichia coli CCUGT (Eco), Klebsiella pneumoniae ATCC 13833 (Kpn), Acinetobacter baumannii ATCC 17978 (Aba), and Pseudomonas aeruginosa ATCC 27853 (Pae) (Table 2). Both the minimum inhibitory concentration (MIC, Table 2) and the minimum bactericidal concentration (MBC, Table S1, Supporting Material) were determined.
(§2) The minimum inhibitory concentration (MIC) and the minimum bactericidal concentration (MBC) of the compounds were determined in triplicate using Mueller–Hinton broth (MHB). […] Therefore, we decided to dissolve all peptides in DMSO to a final concentration of 25 mg/mL, for consistency. The bacteria inoculum was 5 × 10^5 CFU/mL, as recommended by CLSI (Document M07-A10, 2015). […] Reference-type strains, including representatives of both Gram-positive bacteria (Bacillus subtilis ATCC 6633, Enterococcus faecalis ATCC 29212, Staphylococcus aureus ATCC 25923, the methicillin-resistant Staphylococcus aureus ATCC 43300 (MRSA), Streptococcus pyogenes ATCC 12344) and Gram-negative bacteria (Escherichia coli CCUGT, Klebsiella pneumoniae ATCC 13833, Pseudomonas aeruginosa ATCC 27853, and Acinetobacter baumannii ATCC 17978), were acquired from ATCC or CCUG culture collections. Other antibiotic-resistant clinical isolates were present in our collection at the University Teaching Hospital (Azienda Ospedaliero-Universitaria Senese ‘Santa Maria alle Scotte’) in Siena, Tuscany, Italy. Specifically, MDR carbapenem-hydrolyzing class D β-lactamase-producing Acinetobacter baumannii and metallo-β-lactamase-producing Pseudomonas aeruginosa were used in this study (Table 4).

[3] = tested on: Pseudomonas aeruginosa ATCC 27853; conditions: MHB, 5 × 10^5 CFU/mL, 18 h, 35 °C, triplicate
Source text: as §1, §2

[4] = tested on: Klebsiella pneumoniae ATCC 13833; conditions: MHB, 5 × 10^5 CFU/mL, 18 h, 35 °C, triplicate
Source text: as §1, §2

[5] = tested on: Streptococcus pyogenes ATCC 12344; conditions: MHB, 5 × 10^5 CFU/mL, 18 h, 35 °C, triplicate
Source text: as §1, §2

[6] = tested on: Escherichia coli CCUGT; conditions: MHB, 5 × 10^5 CFU/mL, 18 h, 35 °C, triplicate
Source text: as §1, §2

[7] = tested on: Enterococcus faecalis ATCC 29212; conditions: MHB, 5 × 10^5 CFU/mL, 18 h, 35 °C, triplicate
Source text: as §1, §2

[8] = tested on: Bacillus subtilis ATCC 6633
Source text: as §1, §2

[9] = tested on: Acinetobacter baumannii ATCC 17978; conditions: MHB, 5 × 10^5 CFU/mL, 18 h, 35 °C, triplicate
Source text: as §1, §2

[10] = MHB, 5 × 10^5 CFU/mL, 18 h, 35 °C, triplicate

Structure (SMILES)	Hemolysis (class) [1]	MBC Sau [2] [µg/mL]	MIC Sau [2] [µg/mL]	MIC Pae [3] [µg/mL]	MIC Kpn [4] [µg/mL]	MBC Spy [5] [µg/mL]	MIC Spy [5] [µg/mL]	MIC Eco [6] [µg/mL]	MBC Efa [7] [µg/mL]	MIC Efa [7] [µg/mL]	MBC Bsu [8, 10] [µg/mL]	MIC Bsu [8, 10] [µg/mL]	MIC Aba [9] [µg/mL]	MBC Bsu ([8]; ATCC 6633, 18 h) [µg/mL]	Hemolytic activity (in words) ([1]; 50 μg spotted on blood agar)
CCCCCCCC(=O)NC(C)(C)C(=O)NCC(=O)N[C@@H](CC(C)C)C(=O)NC(C)(C)C(=O)N[C@@H](CCCCN)C(=O)NC(C)(C)C(=O)N[C@@H](CC(C)C)C(=O)NC(C)(C)C(=O)NCC(=O)N[C@H](C(=O)N[C@@H](CC(C)C)C(N)=O)[C@@H](C)CC [Peptide 6b, 1-Oct-Aib-Gly-Leu-Aib-Lys-Aib-Leu-Aib-Gly-Ile-Leu-NH2] (Octanoyl-[Aib]GL[Aib]K[Aib]L[Aib]GIL-NH2)	-	128 (≈ 109 µM)	128 (≈ 109 µM)	> 128	> 128	32 (≈ 27.2 µM)	8 (≈ 6.79 µM)	> 128	128 (≈ 109 µM)	128 (≈ 109 µM)	128 (≈ 109 µM)	128 (≈ 109 µM)	> 128		
CCCCCCCC(=O)N[C@@H](CCCCN)C(=O)N[C@@H](CC(C)C)C(=O)NC(C)(C)C(=O)N[C@@H](CC(C)C)C(N)=O [Peptide 17, 1-Oct-Lys-Leu-Aib-Leu-NH2] (Octanoyl-KL[Aib]L-NH2)			> 128	> 128	> 128		> 128	> 128		> 128		> 128	> 128		
CCCCCCCC(=O)N[C@@H](CC(C)C)C(=O)N[C@@H](CCCCN)C(=O)NC(C)(C)C(=O)N[C@@H](CC(C)C)C(N)=O [Peptide 18, 1-Oct-Leu-Lys-Aib-Leu-NH2] (Octanoyl-LK[Aib]L-NH2)			> 128	> 128	> 128		128 (≈ 220 µM)	> 128		> 128		128 (≈ 220 µM)	> 128	> 128	
CCCCCCCC(=O)NC(C)(C)C(=O)N[C@@H](CCCCN)C(=O)N[C@@H](CCCCN)C(=O)N[C@@H](CC(C)C)C(=O)N[C@@H](CC(C)C)C(N)=O [Peptide 13, 1-Oct-Aib-Lys-Lys-Leu-Leu-NH2] (Octanoyl-[Aib]KKLL-NH2)			> 128	> 128	> 128		> 128	> 128		> 128		32 (≈ 45 µM)	> 128	64 (≈ 90 µM)	
CCCCCCCC(=O)NC(C)(C)C(=O)NCC(=O)N[C@@H](CC(C)C)C(=O)N[C@@H](CC(C)C)C(=O)NCC(=O)NCC(=O)N[C@@H](CC(C)C)C(=O)NC(C)(C)C(=O)NCC(=O)N[C@H](C(=O)N[C@@H](CC(C)C)C(N)=O)[C@@H](C)CC [Peptide 3, 1-Oct-Aib-Gly-Leu-Leu-Gly-Gly-Leu-Aib-Gly-Ile-Leu-NH2] (Octanoyl-[Aib]GLLGGL[Aib]GIL-NH2)	-		> 128	> 128	> 128		> 128	> 128		> 128		> 128	> 128		no hemolysis detected
CCCCCCCC(=O)N[C@@H](CC(C)C)C(=O)NC(C)(C)C(=O)N[C@@H](CCCCN)C(=O)N[C@H](C(N)=O)[C@@H](C)CC [Peptide 14, 1-Oct-Leu-Aib-Lys-Ile-NH2] (Octanoyl-L[Aib]KI-NH2)			> 128	> 128	> 128		> 128	> 128		> 128		> 128	> 128		
